Assay results published in paper PMC7923628 (Proceedings of the National Academy of Sciences of the …, 2021).

How the values were obtained:
E3 ROC1–CUL1 CTD = E3 ROC1–CUL1 CTD (Homo sapiens, UniProt Q13616); experiment: FRET K48 di-Ub synthesis with ROC1–CUL1 CTD; format: biochemical; conditions: for blocking ubiquitination (in words): Table S2
E3 ROC1–CUL1 CTD complex = E3 ROC1–CUL1 CTD complex (Homo sapiens, UniProt Q13616); experiment: MST ligand binding to ROC1–CUL1 CTD; conditions: Table S2
E3 ROC1–CUL1 CTD complex, sequence (Q13616 411-776): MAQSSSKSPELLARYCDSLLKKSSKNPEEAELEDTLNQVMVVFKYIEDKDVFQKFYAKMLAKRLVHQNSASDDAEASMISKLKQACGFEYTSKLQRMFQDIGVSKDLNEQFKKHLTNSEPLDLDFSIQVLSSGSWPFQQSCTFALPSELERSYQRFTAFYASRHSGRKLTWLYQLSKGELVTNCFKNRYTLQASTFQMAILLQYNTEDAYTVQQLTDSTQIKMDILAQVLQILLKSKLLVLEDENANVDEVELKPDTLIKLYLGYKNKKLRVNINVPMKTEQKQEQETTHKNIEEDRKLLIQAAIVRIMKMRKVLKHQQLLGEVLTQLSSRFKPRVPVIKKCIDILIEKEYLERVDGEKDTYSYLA
E3 ROC1–CUL1 CTD complex, sequence (P62877 whole entry partner): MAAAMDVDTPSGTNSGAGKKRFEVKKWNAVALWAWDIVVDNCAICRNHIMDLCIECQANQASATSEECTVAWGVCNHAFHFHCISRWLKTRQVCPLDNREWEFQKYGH

p27 = experiment: Immunoblot of CRL1/SCF^Skp2 substrate p27 in MV4-11 cells; format: cell-based, human
MV4-11 tumors = experiment: AML MV4-11 subcutaneous xenograft in mice; format: in vivo, mouse; conditions: G5, 3 mg/kg, oral, QD

E3 ROC1–CUL1 CTD, sequence (Q13616 411-776): as the sequence (Q13616 411-776) above
E3 ROC1–CUL1 CTD, sequence (P62877 whole entry partner): as the sequence (P62877 whole entry partner) above

Cc1oc2c(O)c(O)ccc2c(=O)c1Oc1ccccc1 [33-2, 7,8-dihydroxy-2-methyl-3-phenoxy-4H-chromen-4-one]
drop in IC50 (E3 ROC1–CUL1 CTD; compared with 33): sevenfold

COc1ccc2c(=O)c(Oc3ccccc3)c(C)oc2c1OC [33-3, 7,8-dimethoxy-2-methyl-3-phenoxy-4H-chromen-4-one]
E3 binding (in words) (E3 ROC1–CUL1 CTD complex): completely inactive
blocking ubiquitination (in words) (E3 ROC1–CUL1 CTD): completely inactive

O=c1c(Oc2ccccc2)c(C(F)(F)F)oc2cc(O)ccc12 [33-7, 7-hydroxy-3-phenoxy-2-(trifluoromethyl)-4H-chromen-4-one]
blocking ubiquitination (in words) (E3 ROC1–CUL1 CTD): inactive

NS(=O)(=O)OC[C@@H]1C[C@@H](n2ccc3c(N[C@H]4CCc5ccccc54)ncnc32)C[C@@H]1O [MLN4924]
effect on p27 level (p27): stabilized

CNC(=O)c1cc(Oc2ccc(NC(=O)Nc3ccc(Cl)c(C(F)(F)F)c3)cc2)ccn1 [sorafenib]
tumor inhibition (MV4-11 tumors): 46.02%
